Reference: publication PMC5640672, “Molecular mechanism of synergy between the antimicrobial peptides PGLa and magainin 2” (Scientific Reports, 2017)
No end group written: not given here.

Assays:
[1] = Fluorescence ANTS/DPX vesicle leakage assay in POPC/POPG (3:1); conditions: ANTS/DPX, POPC/POPG (3:1) 100 nm vesicles, P/L about 1:160 per peptide, mixtures 1:1, 10 mM HEPES pH 7.5, 155 mM NaCl, 30 °C, 600 s, % of Triton-X-100 leakage, fluorescence, mean of n = 3
Method: The synergy was also investigated by a fluorescence ANTS/DPX leakage assay[24],[27],[30]. As described in the Methods section, leakage from POPC/POPG (3:1) vesicles was measured for 10 minutes after the addition of vesicles to a peptide solution. Leakage is expressed as percentage of the full leakage, which was obtained after addition of detergent. A synergy factor was defined to describe the enhancement of leakage of the mixture compared to the sum of the extent of leakage for each component. […] In general a synergy factor above 2 indicated synergy. […] In the leakage assay, this pore formation can be studied under more controlled conditions. Here we use two lipid compositions for the vesicles, which are mimicking bacterial membranes.
Leakage of small unilamellar vesicles induced by the peptides was studied using a standard fluorescence assay.
The appropriate lipids for each experiment were dissolved in CHCl3, together with 0.02 mol-% Rhodamine-PE (Rh-PE). […] This stock suspension was subjected to 10 freeze-thaw cycles and then frozen. Appropriate aliquots of the stock lipid suspension were unfrozen each day and extruded (41 times) through polycarbonate membranes with 100 nm pore size, and stored at room temperature overnight. The fluorophore and quencher outside the vesicles were removed by size exclusion chromatography using spin-columns (Pierce centrifuge column, 2 ml, Life Technologies GmbH, Darmstadt, Germany) filled with Sephacryl 100-HR (2 min, 1500 × g). For elution, a 10 mM HEPES buffer (pH 7.5) was used, containing 155 mM NaCl to balance the osmolarity. After extrusion and removal of the external dye and quencher, the lipid concentration usually decreases. Therefore, before each set of measurements a rhodamine spectrum was recorded to determine the actual concentration of lipids, which was referenced to a spectrum taken of vesicles made by sonification without any subsequent treatment.
Fluorescence experiments were performed on a FluoroMax2 spectrofluorimeter (HORIBA Jobin Yvon, Unterhaching, Germany) equipped with a thermostated sample holder and magnetic stirrer, using an excitation wavelength of 355 nm, an emission wavelength of 508 nm, and slit widths of 5 nm. The peptide solutions were placed in elution buffer in a 1 cm standard cuvette at 30 °C. 100 s after the start of the measurement lipid vesicles were added, and the intensity of the fluorescence at 508 nm was recorded. The leakage was measured during 600 s after addition of vesicles, and the measurement was terminated after addition of Triton-X-100 (0.25% v/v), which dissolved the vesicles, and yielded 100% leakage. To determine the background signal of the vesicles themselves, several blanks were recorded per measurement set. From the leakage values of the peptides alone and of the mixture of two peptides a synergy factor SF was calculated:3 SF=L(A+B)/[L(A)+L(B)] […] Measurements were repeated three times and average values and standard deviations calculated for the leakage and the synergy factors. An average SF ≥ 2 was taken to indicate synergy.

E. coli DSM 1103 = assay: Checker-board assay (FICI); type: cell-based, Escherichia coli; conditions: below 0.5 = synergistic activity
Method: A suitable method to study synergistic antimicrobial activity is the so-called checker-board assay, described in the Methods section. We performed such experiments on one Gram-negative bacterium, E. coli, and one Gram-positive one, S. aureus. From this method a fractional inhibitory concentration index (FICI) is determined, and when this is below 0.5, the peptides are said to have a synergistic effect against bacteria. This is the biologically relevant effect, but we are here interested in the atomistic details of the interactions behind the effect. Therefore we also use biophysical methods.
The antimicrobial activity of the peptides was investigated with a standard MIC assay[87],[88] on one Gram positive (Staphylococcus aureus, DSM 1104, ATCC 25923) and one Gram negative bacterial strain (Escherichia coli, DSM 1103, ATCC 25922). Bacteria were grown in Müller-Hinton medium (MH) at 37 °C and 220 rpm. Overnight cultures were inoculated from a single colony and grown for approximately 16 h. Day cultures were grown for approximately 3 h until they reached the exponential growth phase. These suspensions were diluted with MH-medium to a concentration of 10^6 colony-forming units (CFU) per ml. The microtiter plates (96 wells of 100 µL) were filled with 50 µL of MH, and serial 2-fold dilutions of each peptide were arranged in triplets along the columns. […] The MIC value was determined visually, as the lowest peptide concentration which inhibited bacterial growth in at least two out of three columns.
To visualize synergy between different peptides, a two-dimensional dilution assay was used[89],[90]. […] From these values, fractional inhibitory concentration indices (FICIs) were calculated with the following formula[89],[91]:1 FICI=[MIC(A)^comb/MIC(A)^alone]+[MIC(B)^comb/MIC(B)^alone] In this formula, MIC(A)^alone is the MIC value determined for peptide A alone, and MIC(A)^comb is the concentration of peptide A at the MIC determined for the combination. […]

[2] = Table S7 series (PGLa-to-MSI mutants)
[3] = Table S3 series (charge mutants)

Row | Substance | Leakage, mean value [1, 2] [%] | Leakage, mean value ([1]; Table S11 series (MSI-to-PGLa mutants)) [%] | FICI in combination with MAG2-WT (E. coli DSM 1103) | Leakage, mean value [1, 3] [%]
1 | GMASKAGKIAGKIAKVALKAL-NH2 (also: 15N-labeled Ala10) [PtM-A8K, PGLa single mutant A8K] | 2.5 | – | – | –
2 | KIAGKIGKIAGKIAKIAGKIA-NH2 [MtP-A7G, MSI-103 to PGLa single mutant A7G] | – | 1.4 | below 0.5 | –
3 | KIAGKAGAIAGKIAKVALKAL-NH2 [PtM-a2, PGLa to MSI-103 mutant, three amino acids converted] | 2.4 | – | below 0.5 | –
4 | GIGKFLHSAKKFGKAFVGKIMNS-OH [MAG2-E19K, MAG2 charge mutant E19K] | – | – | – | 4.2
5 | GMASKIGAIAGKIAKVALKAL-NH2 (also: 15N-labeled Ala10) [PtM-A6I, PGLa single mutant A6I] | 2.0 | – | – | –
6 | GIGKFLHSAKKFGKAFVGKIMNS-NH 2 (GIGKFLHSAKKFGKAFVGKIMNS-NH2) [MAG2-E19K-amide, amidated MAG2 E19K mutant] | – | – | – | 2.9
7 | GMASKAGAIAGKIAKIAGKIA-NH2 [PtM-c1, PGLa to MSI-103 mutant, segment C replaced] | 1.4 | – | below 0.5 | –
